From patent US20170205396A1, “SYSTEMS AND METHODS FOR CULTURING NEPHRON PROGENITOR CELLS” (Salk Institute for Biological Studies, priority 2016, published 2017)

What was measured:
nephron organoids = experiment: Mouse nephron organoid generation and chemical treatment; assay type: cell-based
Description: Given kidney's primary function in plasma filtration and metabolic homeostasis, drug-induced nephrotoxicity is common and constitutes a major consideration during the development of new therapeutic drugs. Currently, drug toxicity screening is largely performed using monolayer cultured immortalized kidney cells. Cells in monolayer culture, however, lack an intact 3D nephron structure and are thus limited for accurate prediction of a drug's effect on kidney function. Another layer of complexity during drug screening using immortalized cell lines relates to genetic abnormalities. […] A screen was done to determine conditions that allow efficient organoid generation from srNPCs. […] Committed srNPCs were designated as fate-specified NPCs or FS-NPCs. FS-NPCs could further differentiate autonomously and form nephron organoids marked by numerous tubular formations (FIG. 3B). Whole-mount staining of obtained nephron organoids identified numerous PODXL+/WT1+ glomeruli, LTL+ proximal tubules and CDH1+ distal tubules. The transition from srNPCs via FS-NPCs to nephron organoids was rapid (as short as 7 days), highly efficient and composed of all major nephron segments representing the glomeruli and proximal and distal tubules.
In vivo, NPCs first differentiate to pretubular aggregates (PTA) and renal vesicles (RV) before further maturation to form the segmented renal tubules. To determine which stage FS-NPCs likely correspond to, the expression of common PTA and RV markers was checked. […] Immunofluorescence studies confirmed protein expression of both PTA/RV markers (LHX1 and PAX8) and NPC markers (SIX2 and SALL1) in FS-NPCs.
The utility of srNPC-derived organoids for renal toxicity testing was determined. […]
CD2AP is an important interacting protein for NEPHRIN and PODOCIN and is necessary for proper glomerulus functions and mutations in CD2AP are associated with sporadic nephrotic syndrome and focal segmental glomerulosclerosis (FSGS). […] Consistent with the hypothesis, Cd2ap was expressed in wild type (#2) while barely detected in gene-disrupted (#1 and #3) organoids (FIG. 3E). […]

Six2-GFP+ NPCs = experiment: NPSR-based 3D aggregate culture of primary NPCs (srNPC derivation, long-term expansion, component withdrawal); assay type: cell-based, mouse; details: each of six components subtracted, period as short as 4 days
Description: NPCs in mouse first appear around embryonic day 11.5 (E11.5) and mark the onset of nephrogenesis. In mice, NPCs exhaust shortly after birth, around postnatal day 3 (P3), after their last wave of differentiation into nephrons. Lineage tracing experiments have established SIX2 as a specific NPC marker. Available mouse strain with GFP cassette knocked in the Six2 locus (Six2^GCE) facilitates purification of Six2-GFP+ population from embryonic or neonatal mouse kidneys by fluorescence activated cell sorting (FACS). To screen for conditions conducive to in vitro expansion of NPCs Six2-GFP+ cells were isolated from E13.5 embryonic kidneys of Six2^GCE mice. Considering that in vivo NPCs are tightly packed together, it was hypothesized that the cell-cell contact might play a role in their survival and proliferation. Thus, to better preserve the native microenvironment, sorted Six2-GFP+ NPCs were transferred into U-bottom low-attachment 96-well plates to form 3D aggregates. In base medium supplemented with serum alone NPC aggregates could form.
The optimal condition supportive of NPC self-renewal in vitro was determined by screening growth factors and chemical inhibitors for known signaling pathways implicated in regulating NPC survival, self-renewal, and differentiation in vivo as well as other signaling pathways that were not previously reported. Cell viability, growth rate, and GFP signal were considered among other criteria. Through successive testing a novel culture condition was established containing a cocktail of BMP7, FGF2, Heparin, Y27632, LIF, and CHIR99021 that promotes long-term in vitro expansion of Six2-GFP+ NPCs with high purity (it was named NPC self-renewal medium, or NPSR medium) (FIG. 1A). Of note is that isolated Six2+ NPCs have been propagated in this culture for more than one year and more than 70 passages. The established NPC lines were designated as self-renewable NPCs (srNPCs) due to their unlimited proliferative potential. srNPCs grow fast under this culture condition. Starting with 3,000 cells, after 5 days, the aggregate can grow to around 1 mm in diameter containing around 100,000 cells (FIG. 1B and FIG. 1C). srNPC aggregates maintain stable growth rate after long term passages with 6 to 7 doublings per passage (FIG. 1D). […] Moreover, similar results were obtained when SIX2 and other NPC marker gene expressions were quantified by immunostaining: SIX2+ (˜96.2%), SALL1+ (˜99.1%), CITED1+ (˜96.1%) (FIG. 1E). […] To this end each of the six components were subtracted from NPSR medium and evaluated the effects on srNPCs.
It was determined whether NPSR culture could also support the derivation of srNPCs from other developmental stages harboring Six2+ populations. […]

| Compound | effect of removal of the component from NPSR medium on srNPCs (Six2-GFP+ NPCs) | further results |
| --- | --- | --- |
| C[C@H](NC(=O)Cc1cc(F)cc(F)c1)C(=O)N[C@H](C(=O)OC(C)(C)C)c1ccccc1 [DAPT] |  | effect on proximal tubule and glomerulus differentiation (nephron organoids; 5 μM, day 2 to day? (FS-NPCs to nephron organoids)): both proximal tubules and glomerulus differentiation were inhibited |
| C[C@@H](N)[C@H]1CC[C@H](C(=O)Nc2ccncc2)CC1 [Y27632] | slower cell growth |  |
| FGF2: fibroblast growth factor, NPSR medium component | slower cell growth |  |
| Heparin | slower cell growth |  |
| LIF: leukemia inhibitory factor protein, an interleukin 6 class cytokine | loss of GFP signal |  |
| lipopolysaccharide [LPS] |  | glomerulus injury in nephron organoids (morphology, active Caspase 3) (nephron organoids; 20 μg/ml, two-day exposure, day 7 organoids): specific damages in the glomerulus; apoptotic cells (active Caspase 3) in Cd2ap-deficient versus wild type organoids (nephron organoids; low dosage 10 μg/ml, two days, tetO srNPC lines): accumulated more apoptotic cells than the wild type |
